Structures can show the parent of a compound that is named as a salt.
Structure (SMILES)	melting point [°C]
O=C(NC1CCC(c2cc(Nc3cccc(C(F)(F)F)c3)n[nH]2)C1)c1ccccn1 (centres unmarked) (as salt: HCl) [Example 31, Pyridine-2-carboxylic acid {3-[5-(3-trifluoromethyl-phenylamino)-2H-pyrazol-3-yl]-cyclopentyl}-amide]	180.1
O=C(NC1CCC(c2cc(Nc3cccc(C(F)(F)F)c3)n[nH]2)C1)C1CCC1 (centres unmarked) (as salt: HCl) [Example 33, Cyclobutanecarboxylic acid {3-[5-(3-trifluoromethyl-phenylamino)-2H-pyrazol-3-yl]-cyclopentyl}-amide]	232.4
CC(C)(C)C(=O)NC1CCC(c2cc(Nc3cccc(C(F)(F)F)c3)n[nH]2)C1 (centres unmarked) (as salt: HCl) [Example 34, 2,2-Dimethyl-N-{3-[5-(3-trifluoromethyl-phenylamino)-2H-pyrazol-3-yl]-cyclopentyl}-propionamide]	249.2
O=C(Cc1cccc2ccccc12)Nc1cc([C@H]2C[C@@H](NC(=O)c3cccc(C(F)(F)F)c3)C2)[nH]n1 (as salt: HCl) [Example 45, N-{cis-3-[5-(2-Naphthalen-1-yl-acetylamino)-2H-pyrazol-3-yl]-cyclobutyl}-3-trifluoromethyl-benzamide]	142.8
CC(C)C(=O)N[C@H]1C[C@@H](c2cc(NC(=O)Cc3cccc4ccccc34)n[nH]2)C1 (as salt: HCl) [Example 46, N-{cis-3-[5-(2-Naphthalen-1-yl-acetylamino)-2H-pyrazol-3-yl]-cyclobutyl}-isobutyramide]	130.6
O=C(Cc1cccc2ccccc12)Nc1cc([C@H]2C[C@@H](NC(=O)CC3CC3)C2)[nH]n1 (as salt: HCl) [Example 50, 2-Cyclopropyl-N-{cis-3-[5-(2-naphthalen-1-yl-acetylamino)-2H-pyrazol-3-yl]-cyclobutyl}-acetamide]	93.2
COc1ccc(C(=O)N[C@H]2C[C@@H](c3cc(NC(=O)Cc4cccc5ccccc45)n[nH]3)C2)cc1 (as salt: HCl) [Example 54, 4-Methoxy-N-{cis-3-[5-(2-naphthalen-1-yl-acetylamino)-2H-pyrazol-3-yl]-cyclobutyl}-benzamide]	175.6
O=C(Cc1cccc2ccccc12)Nc1cc([C@H]2C[C@@H](NC(=O)c3cccc([N+](=O)[O-])c3)C2)[nH]n1 (as salt: HCl) [Example 55, N-{cis-3-[5-(2-Naphthalen-1-yl-acetylamino)-2H-pyrazol-3-yl]-cyclobutyl}-3-nitro-benzamide]	123.5
O=C(Cc1cccc2ccccc12)Nc1cc([C@H]2C[C@@H](Oc3nc4ccccc4o3)C2)[nH]n1 (as salt: HCl) [Example 63, N-{5-[cis-3-(Benzooxazol-2-yloxy)-cyclobutyl]-1H-pyrazol-3-yl}-2-naphthalen-1-yl-acetamide]	142

Other lines, results leading:

melting point [°C]	Structure (SMILES)
124.8	COc1cccc(C(=O)N[C@H]2C[C@@H](c3cc(NC(=O)Cc4cccc5ccccc45)n[nH]3)C2)c1 (as salt: HCl) [Example 44, 3-Methoxy-N-{cis-3-[5-(2-naphthalen-1-yl-acetylamino)-2H-pyrazol-3-yl]-cyclobutyl}-benzamide]
139.8	O=C(Cc1cccc2ccccc12)Nc1cc([C@H]2C[C@@H](NC(=O)C3CC3c3ccccc3)C2)[nH]n1 (stereo partly drawn) (as salt: HCl) [Example 47, 2-Phenyl-cyclopropanecarboxylic acid {cis-3-[5-(2-naphthalen-1-yl-acetylamino)-2H-pyrazol-3-yl]-cyclobutyl}-amide]
209.4	CC(=O)N[C@H]1C[C@@H](c2cc(NC(=O)Cc3cccc4ccccc34)n[nH]2)C1 (as salt: HCl) [Example 48, N-[5-(cis-3-Acetylamino-cyclobutyl)-1H-pyrazol-3-yl]-2-naphthalen-1-yl-acetamide]
194	O=C(Cc1cccc2ccccc12)Nc1cc([C@H]2C[C@@H](NC(=O)c3ccccc3)C2)[nH]n1 (as salt: HCl) [Example 49, N-{cis-3-[5-(2-Naphthalen-1-yl-acetylamino)-2H-pyrazol-3-yl]-cyclobutyl}-benzamide]
200.3	O=C(Cc1cccc2ccccc12)Nc1cc([C@H]2C[C@@H](NC(=O)c3ccc4ccccc4n3)C2)[nH]n1 (as salt: HCl) [Example 52, Quinoline-2-carboxylic acid {cis-3-[5-(2-naphthalen-1-yl-acetylamino)-2H-pyrazol-3-yl]-cyclobutyl}-amide]
